Reference: ChEMBL document CHEMBL1133831 (Bioorg Med Chem Lett, 2001)

What was measured:
[1] = biological target: T1, Muscarinic acetylcholine receptor M1 (Homo sapiens, UniProt P11229); test: Ability to displace [3H]N-methylscopolamine from Muscarinic acetylcholine receptor M1 expressed in CHO cells.; assay type: cell-based
T1 sequence (P11229 whole entry): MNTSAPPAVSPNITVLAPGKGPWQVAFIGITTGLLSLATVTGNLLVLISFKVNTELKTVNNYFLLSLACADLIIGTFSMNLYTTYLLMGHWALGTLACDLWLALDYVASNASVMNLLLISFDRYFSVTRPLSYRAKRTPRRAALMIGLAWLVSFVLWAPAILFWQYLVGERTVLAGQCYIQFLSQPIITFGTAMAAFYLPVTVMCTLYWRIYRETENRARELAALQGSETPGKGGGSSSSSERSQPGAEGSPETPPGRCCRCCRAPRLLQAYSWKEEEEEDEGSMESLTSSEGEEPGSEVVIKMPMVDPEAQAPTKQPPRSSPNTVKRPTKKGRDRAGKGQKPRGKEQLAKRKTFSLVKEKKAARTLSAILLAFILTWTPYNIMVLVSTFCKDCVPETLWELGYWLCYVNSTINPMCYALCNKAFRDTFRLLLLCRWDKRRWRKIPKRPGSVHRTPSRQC

[2] = biological target: T1, Muscarinic acetylcholine receptor M1; test: Ability to displace [3H]oxotremorine from Muscarinic acetylcholine receptor M1 expressed in CHO cells.; assay type: cell-based

SMILES	IC50 [1]	IC50 [2]
Clc1cc(CO/N=C/C2CN3CCC2C3)on1 (centres undefined)	14.9 µM	0.044 µM
COc1cc(CO/N=C2\CN3CCC2C3)on1 (centres undefined)	40.5 µM	0.131 µM
Clc1cc(CO/N=C/C2CN3CCC2CC3)on1 (centres undefined)	23.5 µM	0.795 µM
Brc1cc(CO/N=C/C2CN3CCC2C3)on1 (centres undefined)	17.7 µM	0.385 µM
N#Cc1cc(CO/N=C2\CN3CCC2CC3)on1	8.7 µM	0.081 µM
Clc1cc(CO/N=C2\CN3CCC2C3)on1 (centres undefined)	36.3 µM	0.023 µM
Brc1cc(CO/N=C2\CN3CCC2C3)on1 (centres undefined)	48.8 µM	0.079 µM
COc1cc(CO/N=C2\CN3CCC2CC3)on1	35.6 µM	0.362 µM
Brc1cc(CO/N=C/C2CN3CCC2CC3)on1 (centres undefined)	8.4 µM	1.22 µM
Brc1cc(CO/N=C2\CN3CCC2CC3)on1	11.5 µM	0.072 µM
COc1cc(CO/N=C/C2CN3CCC2C3)on1 (centres undefined)	16.7 µM	0.287 µM
COc1cc(CO/N=C/C2CN3CCC2CC3)on1 (centres undefined)	29.5 µM	1.64 µM
N#Cc1cc(CO/N=C2\CN3CCC2C3)on1 (centres undefined)	32.5 µM	0.082 µM
N#Cc1cc(CO/N=C/C2CN3CCC2C3)on1 (centres undefined)	189 µM	1.86 µM
N#Cc1cc(CO/N=C/C2CN3CCC2CC3)on1 (centres undefined)	133 µM	0.341 µM
Clc1cc(CO/N=C2\CN3CCC2CC3)on1	13.8 µM	0.057 µM
O=C1CCCN1CC#CCN1CCCC1 [OXOTREMORINE]	27.1 µM	0.0023 µM
